# Laboratory results published in US20190211020A1 (Agency for Science, Technology and Research, priority 2012, published 2019).
# Counter-ions that a name gives are not always drawn.
# Tested on: eIF4E Ser209 phosphorylation in Hela cells
# Experiment: MNK cell-based assay (AlphaScreen SureFire, eIF4E Ser209 phosphorylation)
# Conditions: Homo sapiens, HeLa, 2 h, read-out: IC50 Hela
# Source text: It has been reported that Ser209 of eIF4E is solely phosphorylated by the MNK enzymes. The ability of compounds to inhibit this process in Hela cells was investigated using the AlphaScreen SureFire® assay platform from Perkin Elmer (Waltham, Mass.). eIF4E phosphorylated on Ser209 is recognized by two antibodies, the first which is fused to a streptavidin coated donor bead binds to an epitope away from Ser209, the second which is fused to a protein A conjugated acceptor bead binds to phosphorylated Ser209. The phosphorylation of eIF4E on Ser209 brings the two antibodies into close proximity and when excited by a laser a singlet oxygen is released by the donor bead which excites the acceptor bead resulting in the emission of light. This enables the monitoring of eIF4E Ser209 phosphorylation and its inhibition in a cellular context.
# Hela cells were seeded into microtitre plates (30,000 cells per well) in 100 μl of culture medium and incubated at 37° C. for 24 hours. The media was then removed by aspiration and the cells resuspended in 50 μl of serum free medium containing the test compound and incubated at 37° C. for 2 hours. The culture medium was again removed by aspiration and the cells resuspended in lysis buffer (provided in Perkin Elmer SureFire® Assay Kit). After agitation at 350 rpm for 20 minutes at 22° C., 4 μl was transferred to a 384 well OptiPlate™ (Perkin Elmer, Waltham, Mass.). To each well was added 5 μl of acceptor mix; the plate was sealed and agitated gently at 22° C. for 2 hours. Then, in subdued light, 2 μl of donor mix was added to each well, the plate was sealed, wrapped in aluminum foil and agitated gently at 22° C. for 2 hours. Emission was measured using the EnVision® plate reader (Perkin Elmer, Waltham, Mass.).
# Inhibition constants (IC50) were determined by plotting AlphaScreen signal versus log compound concentration and fitting with a non-linear regression algorithm using GraphPad Prism (GraphPad Software Inc.).
row,SMILES,IC50
1,"O=C1CCN(C(=O)c2ccc(-c3cn4c(-c5ccc(Cl)cc5)cnc4cn3)cc2)CC1 [Example 43, 1-(4-(3-(4-chlorophenyl)imidazo[1,2-a]pyrazin-6-yl)benzoyl)piperidin-4-one]",< 1000 nM

# Same assay, conditions: Homo sapiens; eIF4E Ser209 phosphorylation, Hela cells, 2 hours; read-out: IC50 Hela
row,SMILES,IC50
1,"CC1(C)CCN(C(=O)c2ccc(-c3cn4c(-c5ccc(C(N)=O)cc5)cnc4cn3)cc2)CC1 [Example 3, 4-(6-(4-(4,4-dimethylpiperidine-1-carbonyl)phenyl)imidazo[1,2-a]pyrazin-3-yl)benzamide]",< 1000 nM
2,"NC(=O)c1ccc(-c2cnc3cnc(-c4ccc(C(=O)N5CCC(N)CC5)cc4)cn23)cc1 [Example 4, 4-(6-(4-(4-aminopiperidine-1-carbonyl)phenyl)imidazo[1,2-a]pyrazin-3-yl) benzamide hydrochloride]",< 1000 nM
3,"CC(C)(C)N1CCN(C(=O)c2ccc(-c3cn4c(-c5ccc(C(N)=O)cc5)cnc4cn3)cc2)CC1 [Example 5, 4-(6-(4-(4-tert-butylpiperazine-1-carbonyl)phenyl)imidazo [1,2-a]pyrazin-3-yl)benzamide]",< 1000 nM
4,"N#Cc1ccc(-c2cnc3cnc(-c4ccc(C(=O)N5CCOCC5)cc4)cn23)cc1 [Example 7, 4-(6-(4-(morpholine-4-carbonyl)phenyl)imidazo[1,2-a]pyrazin-3-yl)benzonitrile]",< 1000 nM
5,"CNC1CCN(C(=O)c2ccc(-c3cn4c(-c5ccc(C#N)cc5)cnc4cn3)cc2)CC1 [Example 9, 4-(6-(4-(4-(methylamino)piperidine-1-carbonyl)phenyl)imidazo[1,2-a]pyrazin-3-yl)benzonitrile]",< 1000 nM
6,"N#Cc1ccc(-c2cnc3cnc(-c4ccc(C(=O)N5CCN(C6CC6)CC5)cc4)cn23)cc1 [Example 14, 4-(6-(4-(4-cyclopropylpiperazine-1-carbonyl)phenyl)imidazo[1,2-a]pyrazin-3-yl)benzonitrile]",< 1000 nM
7,"N#Cc1ccc(-c2cnc3cnc(-c4ccc(C(=O)N5CCC(O)CC5)cc4)cn23)cc1 [Example 15, 4-(6-(4-(4-hydroxypiperidine-1-carbonyl)phenyl)imidazo [1,2-a]pyrazin-3-yl)benzonitrile]",< 1000 nM
8,"CN1CCCN(C(=O)c2ccc(-c3cn4c(-c5ccc(C#N)cc5)cnc4cn3)cc2)CC1 [Example 17, 4-(6-(4-(4-methyl-1,4-diazepane-1-carbonyl)phenyl)imidazo [1,2-a]pyrazin-3-yl)benzonitrile]",< 1000 nM
9,"CN(C)C1CCN(C(=O)c2ccc(-c3cn4c(-c5ccc(C#N)cc5)cnc4cn3)cc2)CC1 [Example 21, 4-(6-(4-(4-(dimethylamino)piperidine-1-carbonyl)phenyl)imidazo [1,2-a]pyrazin-3-yl)benzonitrile]",< 1000 nM
10,"CC1(N)CCN(C(=O)c2ccc(-c3cn4c(-c5ccc(C#N)cc5)cnc4cn3)cc2)CC1 [Example 23, 4-(6-(4-(4-amino-4-methylpiperidine-1-carbonyl)phenyl)imidazo[1,2-a]pyrazin-3-yl)benzonitrile hydrochloride salt]",< 1000 nM
11,"N#Cc1ccc(-c2cnc3cnc(-c4ccc(C(=O)N5CCC6(CC5)COC6)cc4)cn23)cc1 [Example 24, 4-(6-(4-(2-oxa-7-azaspiro[3.5]nonane-7-carbonyl)phenyl)imidazo[1,2-a]pyrazin-3-yl)benzonitrile]",< 1000 nM
12,"CC(C)(C)N1CCN(C(=O)c2ccc(-c3cn4c(-c5ccc(C#N)cc5)cnc4cn3)cc2)CC1 [Example 26, 4-(6-(4-(4-tert-butylpiperazine-1-carbonyl)phenyl)imidazo[1,2-a]pyrazin-3-yl)benzonitrile]",< 1000 nM
13,"Cc1cc(-c2cn3c(-c4ccc(C#N)cc4)cnc3cn2)ccc1C(=O)N1CCC(C)(N)CC1 [Example 28, 4-(6-(4-(4-amino-4-methylpiperidine-1-carbonyl)-3-methylphenyl)imidazo [1,2-a]pyrazin-3-yl)benzonitrile]",< 1000 nM
14,"N#Cc1ccc(-c2cnc3cnc(-c4ccc(C(=O)N5CCC(N)CC5)c(F)c4)cn23)cc1 [Example 29, 4-(6-(4-(4-aminopiperidine-1-carbonyl)-3-fluorophenyl)imidazo[1,2-a]pyrazin-3-yl)benzonitrile]",< 1000 nM
15,"CC1(N)CCN(C(=O)c2ccc(-c3cn4c(-c5ccc(C#N)cc5)cnc4cn3)cc2F)CC1 [Example 30, 4-(6-(4-(4-amino-4-methylpiperidine-1-carbonyl)-3-fluorophenyl)imidazo[1,2-a]pyrazin-3-yl)benzonitrile]",< 1000 nM
16,"N#Cc1ccc(-c2cnc3cnc(-c4ccc(C(=O)N5CCC(N)CC5)c(Cl)c4)cn23)cc1 [Example 31, 4-(6-(4-(4-aminopiperidine-1-carbonyl)-3-chlorophenyl)imidazo[1,2-a]pyrazin-3-yl)benzonitrile]",< 1000 nM

row,SMILES,IC50
1,"CC1(N)CCN(C(=O)c2ccc(-c3cn4c(-c5ccc(C#N)cc5)cnc4cn3)cc2Cl)CC1 [Example 32, 4-(6-(4-(4-amino-4-methylpiperidine-1-carbonyl)-3-chlorophenyl)imidazo[1,2-a]pyrazin-3-yl)benzonitrile]",< 1000 nM
2,"CN1CCN(C(=O)c2ccc(-c3cn4c(-c5ccc(C#N)cc5)cnc4cn3)c(O)c2)CC1 [Example 38, 4-(6-(2-hydroxy-4-(4-methylpiperazine-1-carbonyl)phenyl)imidazo [1,2-a]pyrazin-3-yl)benzonitrile]",< 1000 nM
3,"COc1cc(-c2cn3c(-c4ccc(C#N)cc4)cnc3cn2)ccc1C(=O)N1CCN(C)CC1 [Example 39, 4-(6-(3-methoxy-4-(4-methylpiperazine-1-carbonyl)phenyl)imidazo[1,2-a]pyrazin-3-yl)benzonitrile]",< 1000 nM
4,"CN1CCN(C(=O)c2ccc(-c3cn4c(-c5ccc(Cl)cc5)cnc4cn3)cc2)CC1 [Example 41, (4-(3-(4-chlorophenyl)imidazo [1,2-a]pyrazin-6-yl)phenyl)(4-methylpiperazin-1-yl)methanone]",< 1000 nM
5,"NC(=O)c1ccc(-c2cn3c(-c4ccc(Cl)cc4)cnc3cn2)cc1 [Example 42, 4-(3-(4-chlorophenyl)imidazo[1,2-a]pyrazin-6-yl)benzamide]",< 1000 nM
6,"CCN1CCN(C(=O)c2ccc(-c3cn4c(-c5ccc(Cl)cc5)cnc4cn3)cc2)CC1 [Example 45, (4-(3-(4-chlorophenyl)imidazo [1,2-a]pyrazin-6-yl)phenyl)(4-ethylpiperazin-1-yl)methanone]",< 1000 nM
7,"O=C(c1ccc(-c2cn3c(-c4ccc(Cl)cc4)cnc3cn2)cc1)N1CCNCC1 [Example 46, (4-(3-(4-chlorophenyl)imidazo[1,2-a]pyrazin-6-yl)phenyl)(piperazin-1-yl)methanone 2,2,2-trifluoroacetate salt]",< 1000 nM
8,"O=C(c1ccc(-c2cn3c(-c4ccc(Cl)cc4)cnc3cn2)cc1)N1CCC(NC(=O)C(F)(F)F)CC1 [Example 48, N-(1-(4-(3-(4-chlorophenyl)imidazo [1,2-a]pyrazin-6-yl)benzoyl)piperidin-4-yl)-2,2,2-trifluoroacetamide]",< 1000 nM
9,"N#Cc1ccc(-c2cnc3ccc(-c4ccc(C(=O)N5CCC(O)CC5)cc4)nn23)cc1 [Example 55, 4-(6-(4-(4-hydroxypiperidine-1-carbonyl)phenyl)imidazo [1,2-b]pyridazin-3-yl)benzonitrile]",< 1000 nM
10,"N#Cc1ccc(-c2cnc3ccc(-c4ccc(C(=O)N5CCC(N)CC5)cc4)nn23)cc1 [Example 56, 4-(6-(4-(4-aminopiperidine-1-carbonyl)phenyl)imidazo[1,2-b]pyridazin-3-yl)benzonitrile]",< 1000 nM
11,"CC(=O)NC1CCN(C(=O)c2ccc(-c3ccc4ncc(-c5ccc(C#N)cc5)n4n3)cc2)CC1 [Example 57, N-(1-(4-(3-(4-cyanophenyl)imidazo[1,2-b]pyridazin-6-yl)benzoyl)piperidin-4-yl)acetamide]",< 1000 nM
12,"CC1(N)CCN(C(=O)c2ccc(-c3ccc4ncc(-c5ccc(C#N)cc5)n4n3)cc2)CC1 [Example 58, 4-(6-(4-(4-amino-4-methylpiperidine-1-carbonyl)phenyl)imidazo[1,2-b]pyridazin-3-yl)benzonitrile]",< 1000 nM
13,"CC(C)N1CCN(C(=O)c2ccc(-c3ccc4ncc(-c5ccc(C#N)cc5)n4n3)cc2)CC1 [Example 59, 4-(6-(4-(4-isopropylpiperazine-1-carbonyl)phenyl)imidazo [1,2-b]pyridazin-3-yl)benzonitrile]",< 1000 nM
14,"CNC1CCN(C(=O)c2ccc(-c3ccc4ncc(-c5ccc(C#N)cc5)n4n3)cc2)CC1 [Example 60, 4-(6-(4-(4-(methylamino)piperidine-1-carbonyl)phenyl)imidazo[1,2-b]pyridazin-3-yl)benzonitrile]",< 1000 nM
15,CN(C)C1CCN(C(=O)c2ccc(-c3ccc4ncc(-c5ccc(C#N)cc5)n4n3)cc2)CC1 [Example 63],< 1000 nM
16,"N#Cc1ccc(-c2cnc3ccc(-c4ccc(C(=O)N5CCCOCC5)cc4)nn23)cc1 [Example 64, 4-(6-(4-(1,4-oxazepane-4-carbonyl)phenyl)imidazo[1,2-b]pyridazin-3-yl)benzonitrile]",< 1000 nM
